Organism: Rattus norvegicus
Test: Open TG-GATES - Regimen: Single
Format: toxicity, organism-based, Sprague-Dawley
Design: regimen Single, gender Male, age 6 weeks
Settings: in vivo, po, 30 mg/kg, route gavage, dose level High; for APTT / Bas / Eos / Fbg / Hb / Ht / Lym / MCH / MCHC / MCV / Mono / Neu / PT / Plat / RBC / Ret / WBC: tissue Blood; for KIDNEY_L / KIDNEY_R / KIDNEY_TOTAL: tissue Kidney; for LIVER: tissue Liver; for A/G / ALP / ALT / AST / BUN / CRE / Ca / Cl / DBIL / GLC / IP / K / LDH / Na / PL / RALB / TBIL / TC / TG / TP / gamma-GTP: tissue Plasma

## C[C@H]1C(=O)O[C@@H]2CCN3CC=C(COC(=O)[C@](C)(O)[C@]1(C)O)[C@H]23 [MONOCROTALINE]
3 h
  TERMINAL_BW: 209.7 g
  APTT: 21.1 s
  Bas: 0%
  Eos: 1.2%
  Fbg: 305.4 mg/dL
  Hb: 13.2 g/dL
  Ht: 38.8%
  Lym: 76.4%
  MCH: 21.5 pg
  MCHC: 34%
  MCV: 63.2 fL
  Mono: 2.2%
  Neu: 19.6%
  PT: 16.2 s
  Plat: 119.2 x10_4/uL
  RBC: 615.6 x10_4/ul
  Ret: 8.9%
  WBC: 71.5 x10_2/uL
  KIDNEY_L: 0.9 g
  KIDNEY_R: 0.9 g
  KIDNEY_TOTAL: 1.8 g
  LIVER: 9.5 g
  A/G: 1.4
  ALP: 1720.6 IU/L
  ALT: 40.8 IU/L
  AST: 76.4 IU/L
  BUN: 13.2 mg/dL
  CRE: 0.2 mg/dL
  Ca: 10.4 mg/dL
  Cl: 106 meq/L
  DBIL: 0 mg/dL
  GLC: 169.4 mg/dL
  IP: 9.2 mg/dL
  K: 4.2 meq/L
  LDH: 228.2 IU/L
  Na: 142 meq/L
  PL: 127.6 mg/dL
  RALB: 3.1 g/dL
  TBIL: 0.01 mg/dL
  TC: 71.2 mg/dL
  TG: 78.8 mg/dL
  TP: 5.3 g/dL
  gamma-GTP: 1 IU/L
6 h
  TERMINAL_BW: 211.5 g
  APTT: 22.7 s
  Bas: 0%
  Eos: 1%
  Fbg: 309.8 mg/dL
  Hb: 13.7 g/dL
  Ht: 39.8%
  Lym: 78.6%
  MCH: 20.8 pg
  MCHC: 34.4%
  MCV: 60.7 fL
  Mono: 2.6%
  Neu: 17.2%
  PT: 16.2 s
  Plat: 128.2 x10_4/uL
  RBC: 657.2 x10_4/ul
  Ret: 8.4%
  WBC: 94.1 x10_2/uL
  KIDNEY_L: 0.9 g
  KIDNEY_R: 1 g
  KIDNEY_TOTAL: 1.9 g
  LIVER: 9.6 g
  A/G: 1.3
  ALP: 1398.4 IU/L
  ALT: 39.2 IU/L
  AST: 72.8 IU/L
  BUN: 11.2 mg/dL
  CRE: 0.1 mg/dL
  Ca: 10.5 mg/dL
  Cl: 106.4 meq/L
  DBIL: 0 mg/dL
  GLC: 173 mg/dL
  IP: 9.6 mg/dL
  K: 4.4 meq/L
  LDH: 273.4 IU/L
  Na: 141.8 meq/L
  PL: 137.4 mg/dL
  RALB: 3 g/dL
  TBIL: 0.018 mg/dL
  TC: 73 mg/dL
  TG: 66 mg/dL
  TP: 5.4 g/dL
  gamma-GTP: 1 IU/L
9 h
  TERMINAL_BW: 210 g
  APTT: 20.9 s
  Bas: 0%
  Eos: 0.8%
  Fbg: 301.6 mg/dL
  Hb: 13.2 g/dL
  Ht: 38.3%
  Lym: 79%
  MCH: 21.2 pg
  MCHC: 34.4%
  MCV: 61.8 fL
  Mono: 1.8%
  Neu: 18%
  PT: 16.3 s
  Plat: 122.7 x10_4/uL
  RBC: 620.2 x10_4/ul
  Ret: 9%
  WBC: 63.3 x10_2/uL
  KIDNEY_L: 1 g
  KIDNEY_R: 1 g
  KIDNEY_TOTAL: 2 g
  LIVER: 9.4 g
  A/G: 1.4
  ALP: 1227.2 IU/L
  ALT: 36.8 IU/L
  AST: 70.8 IU/L
  BUN: 9.6 mg/dL
  CRE: 0.1 mg/dL
  Ca: 10.7 mg/dL
  Cl: 105.6 meq/L
  DBIL: 0.006 mg/dL
  GLC: 178 mg/dL
  IP: 10.2 mg/dL
  K: 4.3 meq/L
  LDH: 198.2 IU/L
  Na: 142.2 meq/L
  PL: 119.4 mg/dL
  RALB: 3.1 g/dL
  TBIL: 0.022 mg/dL
  TC: 64 mg/dL
  TG: 40.8 mg/dL
  TP: 5.4 g/dL
  gamma-GTP: 1 IU/L
24 h
  TERMINAL_BW: 212.6 g
  APTT: 20.5 s
  Bas: 0%
  Eos: 0.8%
  Fbg: 302.4 mg/dL
  Hb: 13.9 g/dL
  Ht: 40.3%
  Lym: 79.4%
  MCH: 21.1 pg
  MCHC: 34.5%
  MCV: 61.3 fL
  Mono: 3%
  Neu: 16.2%
  PT: 16.1 s
  Plat: 123.3 x10_4/uL
  RBC: 658.2 x10_4/ul
  Ret: 7%
  WBC: 70.1 x10_2/uL
  KIDNEY_L: 1 g
  KIDNEY_R: 1 g
  KIDNEY_TOTAL: 1.9 g
  LIVER: 10.4 g
  A/G: 1.4
  ALP: 1607.2 IU/L
  ALT: 47.8 IU/L
  AST: 75 IU/L
  BUN: 15.8 mg/dL
  CRE: 0.2 mg/dL
  Ca: 10.5 mg/dL
  Cl: 107 meq/L
  DBIL: 0.002 mg/dL
  GLC: 172 mg/dL
  IP: 7.8 mg/dL
  K: 4.3 meq/L
  LDH: 182 IU/L
  Na: 142.2 meq/L
  PL: 182.4 mg/dL
  RALB: 3.2 g/dL
  TBIL: 0.004 mg/dL
  TC: 77 mg/dL
  TG: 108 mg/dL
  TP: 5.5 g/dL
  gamma-GTP: 1 IU/L

Reference: ChEMBL document CHEMBL3885861, “Open TG-GATES”
